Reference: patent publication US20160129005A1, “ADENINE DERIVATIVES HAVING IMMUNOMODULATING ANTI-INFLAMMATORY AND ANALGESIC ACTIVITY” (MEDESTEA RESEARCH & PRODUCTION S.p.A., priority 2011, published 2016)
Several values for one entry are separate records, joined by “and”; a condition that tells them apart may be missing. Equal entries are not always repeated.

Tests used:
[1] = tested on: diabetic C57BL/6 mice transplanted with BALB/c islets; assay: Survival of allogenic pancreatic islets in murine transplant model; type: in vivo, mouse; conditions: 9 mg/kg or 30 mg/kg i.p. daily; FIG. 24
Protocol: C57BL/6 mice were made diabetic by administration of streptozotocin (170 mg/kg) and, following transplant of allogenic pancreatic islets, were treated with […].
The pancreatic islets, isolated from the BALB/c mouse, were inoculated in the diabetic mouse according to the procedure described by Abde R et al. (Diabetes 51 (8): 2489-2495). The glycaemia values were measured daily for monitoring the functionality of the transplanted cells.
The significance of rejection of transplanted cells that occurred was attributed to glycaemia values above 250 mg/dl, obtained in two consecutive measurements. After the cells were implanted (day 0), the mice were treated with intraperitoneal injections of 9 mg/kg or 30 mg/kg of […] daily.
The combination of […] and Rapamycin, currently the most used of the immunosuppressive drugs, was tested on the same animal model.
Both drugs were administered 6 times (day 0, day 2, day 4, day 6, day 8, day 10); […] was administered at 2 doses.

male Fischer inbred rats = assay: Model of arthritis: complete Freund adjuvant paw inflammation, plantar test (Hargreaves); type: in vivo, rat
Protocol: […] was tested for possible antinociceptive and anti-inflammatory activity in a murine model of arthritis.
Unilateral inflammation of the posterior plantar pad of the rat (male Fischer inbred rats) was induced with a local injection of complete Freund adjuvant.
[…], 4 mg/kg, was administered intraperitoneally.
The rats were put in a transparent plastic chamber and were left to acclimatize for 5 minutes before the test.
Thermal stimulus, applied to the surface of the plantar pads of the rats, was produced by a halogen lamp (64607 OSRAM) of 8 V-50 W, through the plastic box; the diameter of the radiant beam measured about 12 mm. The time for withdrawal of the animal's right plantar pad was measured before and after injection of […].
A comparison was conducted on the anti-hyperalgesic and anti-inflammatory effect of a cortisone derivative, methylprednisolone acetate, administered intraperitoneally (5 mg/kg).

U937 cells = assay: Production of VEGF in supernatant of U937 culture; type: cell-based, human; conditions: FIG. 2
Protocol: The inhibitory action of […] on the production of VEGF in the supernatant of U937 in culture was also evaluated.

NOD/scid mice = assay: Graft-versus-host disease (human PBMCs); type: in vivo, mouse
Protocol: Two groups of NOD/scid mice of 8-10 weeks were used, and were kept in cages under sterile flow at an SPF animal facility.
On day −1, to avoid residual activity of natural killer cells, the mice were administered an anti-NK antibody intraperitoneally (TMβ-1.1 mg/mouse). On day 0 the mice were irradiated (300 rad) and they were administered, intraperitoneally, 20×10^6 human peripheral blood mononuclear cells (PBMCs), previously isolated. The PBMCs are isolated by means of buffy coat from blood from healthy donors.
On the same day, the mice were treated with […] intraperitoneally at two doses, 10 mg/kg and 20 mg/kg. The treatment was repeated daily for 15 days.
The mice were checked regularly 3 times a week to monitor the weight loss (also as independent variable) and signs of GvHD using a clinical score (0 for weight loss <10%, 1 for 10%-20%, 2 for 20%; hunching (0-2), reactivity (0-2), appearance of the fur (0-2), and skin integrity (0-2)), with a maximum score of 10.

female NZB/NZW F1 mice = assay: Systemic lupus erythematosus model; type: in vivo, mouse
Protocol: Systemic lupus erythematosus (SLE) is a chronic autoimmune disease that generally begins with arthritis or arthralgia. Haematuria or proteinuria may be the only renal symptom, however, lupus glomerulonephritis may lead to acute or terminal renal failure. An experimental model of SLE consists of female F1 mice derived from crossing of the NZB strain with NZW. To evaluate the possible effect of […] in SLE, we treated female NZB/NZW F1 mice with 0.25 mg of […] or carrier 5 days a week for six weeks, starting the treatment when the mice had developed anti-DNA antibodies.

[2] = tested on: C57BL/6 mice transplanted with BALB/c hearts; assay: Murine heterotopic heart transplant model; type: in vivo, mouse
Protocol: The immunosuppressive potential of […] was tested on a heterotopic heart transplant model; hearts of BALB/c mice were transplanted into the abdominal cavity of C57BL/6 mice.
The beats of the heart were measured, twice weekly, by palpation; stopping of beating was regarded as a sign of transplant rejection.
Three different protocols were used for prolonging transplant survival times: the “short-term” protocol ([…] 9 mg/kg daily for 14 days), the “long-term” protocol ([…] 9 mg/kg every day until rejection), and the “Combo” protocol ([…] on alternate days: day 0, 2, 4, 6, 8, 10, 12, 14+Rapamycin 0.1 mg/kg from day 0 to day 10).
In the acute heart transplant models, the hearts of BALB/c were transplanted into the peritoneal cavity of C57BL/6 mice. The control mice invariably reject the transplant in 10 days (Ctrl: MST=7 days, n=12), (FIG. 26). The “short-term” protocol permitted indefinite survival (100 days) in 10 mice out of 12 (n=12; p=0.0001 vs. Ctrl), (FIG. 26). Similarly, the “long-term” protocol permitted indefinite survival in 8 mice out of 10 (n=10; p=0.002 vs Ctrl), and prolonged survival in the remaining 2 (16 days and 25 days; p=0.002 vs. Ctrl), (FIG. 26).
The histological sections of the hearts on day 7 of BALB/c mice, transplanted into a C57BL/6 host, and treated with the “short-term” protocol, were also analysed.

[3] = 60 days from the end of treatment

For `C=C(C=O)OC(C=O)n1cnc2c(N)ncnc21` (centres unmarked) [2-[1-(6-aminopurin-9-yl)-2-oxoethoxy]prop-2-enal], the “rejection of transplanted islets (glycaemia above 250 mg/dl twice)” value [1] was “no rejection up to day 100”, the “time for withdrawal of the plantar pads (thermal stimulus)” value (male Fischer inbred rats; 4 mg/kg intraperitoneally, to levels comparable to baseline, FIG. 7) was “significantly increases the time for withdrawal of the plantar pads” and the “action relative to methylprednisolone acetate” value (male Fischer inbred rats; IMMUFLAM 4 mg/kg i.p. vs methylprednisolone acetate 5 mg/kg i.p.) was “more effective action”. For the same compound, the “cellular production of VEGF” value (U937 cells) was “reduced the cellular production of VEGF significantly”, the “resistance to GvHD (clinical score)” value (NOD/scid mice; 10 mg/kg and 20 mg/kg i.p. daily for 15 days, FIG. 37) was “statistically significant, dose-dependent resistance to GvHD” and the survival (NOD/scid mice; 10 and 20 mg/kg i.p., untreated all die within 50 days) was “reaching three months from transplant”. For the same compound, the proteinuria (female NZB/NZW F1 mice; 0.25 mg 5 days a week for six weeks, two months following the treatment) was “did not appear”, the “deposition of immune complexes (histopathological score)” value (female NZB/NZW F1 mice; [3]) was “significant decrease” and the “glomerular proliferation (histopathological score)” value (female NZB/NZW F1 mice; [3]) was “significant decrease”. The “lymphocyte infiltration (histopathological score)” value (female NZB/NZW F1 mice; [3]) was “significant decrease”, the “prolonged survival in the remaining 2 mice” value ([2]; long-term protocol) was 16 days and 25 days and the anti-FoxP3 labelling ([2]; short-term protocol, day 7) was “did not show significant differences”. For the same compound, the “lymphocyte tissue infiltration (haematoxylin-eosin)” value ([2]; short-term protocol, day 7) was “absent”, the “presence of mature macrophages” value ([2]; short-term protocol, day 7) was “completely inhibited” and the “B and T lymphocytes (anti-B220, anti-CD3)” value ([2]; short-term protocol, day 7, vs controls) was “appear to decrease numerically”. The vasculopathy score ([2]; short-term protocol, Ctrl=2.0±0.003, p=0.007, FIG. 28C) was 0.3±0.3 and the “score of degree of infiltration” value ([2]; short-term protocol, Ctrl=2.7±0.3, p=0.01, FIG. 28B) was 0.7±0.3.
